pIC50: −log10 of the molar value.
Assays:
[1] = test system: breast cancer cell lines; assay: Cell viability by MTT assay in breast cancer cell lines; type: cell-based; conditions: for pIC50: 72 h, read-out: mean IC50, breast cancer cell viability
From the text: (§1) Data is representative of three independent experiments.
as §1, §1

[2] = test system: MDA-MB-231 breast cancer cell line; assay: Vacuolization by Giemsa staining and transmission electron microscopy; type: cell-based; conditions: MDA-MB-231 cells, 48 hours; for accumulation of electron dense particles: 10 μM Lucanthone or 50 μM Chloroquine, transmission electron microscopy
Experimental: Increased vacuolization was visualized by Giemsa staining and transition electron microscopy. […] After drug treatment, cells were washed with PBS and fixed in methanol for 5 minutes. Cells were then incubated for 1 hour in Giemsa stain diluted 1:20 with deionized water. Cells were rinsed with water and imaged using an Olympus fluorescent microscope. Image-Pro Plus software Version 6.2.1 was used for image acquisition. Transmission electron microscopy of cells was performed using routine procedures. Sections were cut in an LKB Ultracut microtome (Leica, Deerfield, Ill.), stained with uranyl acetate and lead citrate, and examined in a JEM 1230 transmission electron microscope (JEOL, USA, Inc., Peabody, Mass.). Images were captured using the AMT Imaging System (Advanced Microscopy Techniques Corp, Danvers, Mass.).

[3] = test system: MDA-MB-231 breast cancer cell line; assay: Lysosomal membrane permeabilization by loss of acridine orange fluorescence; type: cell-based; conditions: MDA-MB-231 cells, 10 μM Lucanthone or 50 μM Chloroquine, 48 hours
Experimental: The appearance of LMP was monitored by loss of acridine orange fluorescence. Acidic lysosomes were visualized by acridine orange staining. […] Cells were washed with PBS and images were captured using an Olympus fluorescent microscope. Based on the acidity, lysosomes appeared as orange fluorescent cytoplasmic vesicles. Quantification of 5 random fields of acridine orange intensity was measured by immunofluorescence and image acquisition were performed using Image-Pro Plus software Version 6.2.1.

[4] = test system: SQSTMI/p62; assay: SQSTMI/p62 levels and aggregation by immunoblotting and immunocytochemistry; type: cell-based; conditions: MDA-MB-231 cells
Experimental: This protein is degraded by autophagy, localized to cellular inclusion bodies, and has been proposed to play a role in facilitating protein aggregate clearance by autophagy. As such, a disruption of this process would result in the accumulation of SQSTMI/p62.
(§2) Levels and aggregation of SQSTMI/p62 were determined by immunoblotting and immunocytochemistry, respectively. […] Cells were harvested and were then lysed using routine procedures. Approximately 50 μg of total cellular protein from each sample were subjected to SDS-PAGE, proteins were transferred to nitrocellulose membranes, and the membranes were blocked with 5% nonfat milk in a Tris-buffered saline solution containing 0.1% TWEEN-20 for 1 hour. The blots were then probed overnight at 4° C. with primary antibodies, washed, and probed with species-specific secondary antibodies coupled to horseradish peroxidase. Immunoreactive material was detected by enhanced chemiluminescence (West Pico, Pierce, Inc., Rockville, Ill.).

[5] = test system: LC3-II; assay: Accumulation of LC3-II by immunocytochemistry; type: cell-based; conditions: MDA-MB-231 cells, 10 μM Lucanthone, 48 hours
Experimental: Accumulation of LC3-II was visualized by immunocytochemistry. Cells from a MDA-MB-231 breast cancer cell line were plated on chamber slides and allowed to attach overnight. […] Following drug treatment, cells were fixed with 4% paraformaldehyde, permeabilized using 0.2% TRITON-X-100, and incubated overnight with indicated primary antibodies. Alexa Fluor 488 conjugated fluorescent secondary antibodies were used to visualize protein localization. Images were captured using an Olympus fluorescent microscope (Center Valley, P A) with a DP71 camera and a 60× objective. Image-Pro Plus software Version 6.2.1 (MediaCybernetics, Bethesda, Md.) was used for image acquisition.

[6] = test system: cathepsin D; assay: Quantitative real-time PCR analysis of cathepsin D; type: cell-based; conditions: MDA-MB-231 and BT-20 cells, 10 μM Lucanthone, 48 hours, standardized to GAPDH
Experimental: The lysosomal protease cathepsin D is a key mediator of apoptosis and its release into the cytosol has been reported to promote cell death. Considering this, we further evaluated the role of cathepsin D during Lucanthone-mediated cell death using quantitative real-time PCR (qRT-PCR). To perform qRT-PCR, cells from a MDA-MB-231 or a BT-20 cell lines were treated with 10 μM Lucanthone for 48 hours and then harvested for analysis. Total RNA was isolated using the RNeasy Plus Mini Kit (Qiagen, Germantown, Md.) and treated with TURBO DNAfree™ Kit (Applied Biosystems, Foster City, Calif.). First-strand cDNA synthesis was performed from 1 μg RNA in a 20 μL reaction mixture using the high-capacity cDNA Reverse Transcription Kit (Applied Biosystems, Foster City, Calif.). Cathepsin D and GAPDH transcripts were amplified using commercially available TaqMan@Gene expression assays (Applied Biosystems, Foster City, Calif.). Levels of mRNAs were standardized to the expression of GAPDH and relative gene expression was calculated with the 2^−ΔCt method.

[7] = test system: MDA-MB-231 and BT-20 breast cancer cell lines; assay: Affymetrix expression arrays; type: cell-based, human; conditions: MDA-MB-231 and BT-20 cells, 10 μM Lucanthone, 48 hours
Experimental: To further characterize the effects of Lucanthone on breast cancer cells, expression profiling was performed on breast cancer cell lines. Cells from a MDA-MB-231 and a BT-20 breast cancer cell line were treated with 10 μM Lucanthone for 48 hours. Total RNA was isolated using the RNeasy Plus Mini Kit (Qiagen, Germantown, Md.) and treated with TURBO DNA-Free™ Kit (Applied Biosystems, Foster City, Calif.). 300 ng of total RNA per sample was amplified and hybridized to […]® Human Gene 1.0 ST arrays (Affymetrix, Inc., Santa Clara, Calif.) according to the manufacturer's instructions. These arrays assay for the expression of about 28,869 well-annotated genes with 764,885 distinct probes. Affymetrix CEL files were imported into PARTEK® Genomics Suite™ 6.4 (Partek Inc., St. Louis, Mo.) using the default Partek normalization parameters and the robust multi-array average (RMA) analysis adjusted for probe sequence and GC content (GC-RMA). Data normalization was performed across all arrays using quantile normalization.

[8] = test system: breast cancer cell lines; assay: Apoptosis by PI staining and FACS analysis of sub-G0/G1 DNA content; type: cell-based
Experimental: (§3) Cells from the breast cancer cell lines MDA-MB-231, BT-474, SKBR-3, and BT-20 were seeded into 96-well microculture plates at 10,000 cells per well and allowed to attach for 24 hours. Cells were then treated with 10 μM Lucanthone for 72 hours (48 hours for apoptosis assay). For immunoblotting, cells were harvested after treatment and cathepsin D levels were determined as described above. Pro-apoptotic effects following in vitro drug exposure were quantified by propidium iodide (PI) staining and fluorescence-activated cell sorting (FACS) analysis of sub-G0/G1 DNA content. Data is representative of three independent experiments.
Cells from the breast cancer cell lines MDA-MB-231, BT-474, SKBR-3, and BT-20 were seeded into 96-well microculture plates at 10,000 cells per well and allowed to attach for 24 hours. For immunoblotting, cells were then treated with 10 μM Lucanthone, 2.5 μM Vorinostat, or the combination for 72 hours, harvested, and cathepsin D levels were determined as described above. For the MTT cell viability assay, the cells were then treated with 10 μM Lucanthone, 2.5 μM Vorinostat, or the combination for 72 hours. After treatment, 3-(4,5-dimethylthiazol-2-yl)-2,5, diphenyltetrazolium bromide (MTT) was added after treatment and cell viability was quantified using a BioTek (Winooski, Vt.) microplate reader. […] Pro-apoptotic effects following in vitro drug exposure were quantified by propidium iodide (PI) staining and fluorescence-activated cell sorting (FACS) analysis of sub-G0/G1 DNA content. […]
Cells from the breast cancer cell lines MDA-MB-231 and BT-20 were seeded into 96-well microculture plates at 10,000 cells per well and allowed to attach for 24 hours. […] After treatment, 3-(4,5-dimethylthiazol-2-yl)-2,5, diphenyltetrazolium bromide (MTT) was added after treatment and cell viability was quantified using a BioTek (Winooski, Vt.) microplate reader. […] Pro-apoptotic effects following in vitro drug exposure were quantified by propidium iodide (PI) staining and fluorescence-activated cell sorting (FACS) analysis of sub-G0/G1 DNA content. […]

[9] = test system: LC3-II, SQSTM1/p62; assay: LC3-II formation and SQSTM1/p62 accumulation with Bafilomycin A1 (FIG. 1F); type: cell-based
[10] = test system: cathepsin D; assay: Cathepsin D accumulation in isogenic HCT116 p53 cell lines; type: cell-based; conditions: HCT116 p53+1^+ and p53−1^− cell lines
From the text: (§4) Loss of function of p53 is a frequent event in human cancer that is associated with tumorigenesis and drug resistance. […] To investigated the role of p53 in Lucanthone-mediated cell death, […]

[11] = test system: HCT116 colorectal cancer cell lines; assay: Cell viability in isogenic HCT116 p53 cell lines; type: cell-based; conditions: HCT116 p53+1^+ and p53−1^− cell lines
From the text: as §4

[12] = test system: MDA-MB-231 breast cancer cell line; assay: Lucanthone-induced apoptosis after cathepsin D siRNA knockdown; type: cell-based; conditions: MDA-MB-231 cells, 100 nM cathepsin D siRNA vs non-target siRNA, 10 μM Lucanthone, 48 hours
Experimental: To further establish the mechanistic role of cathepsin D in Lucanthone-induced apoptosis, siRNA was used to knockdown its expression (FIG. 4C). Preparation of siRNAs Cahepsin D and non-target SMARTpool siRNA were obtained from Dharmacon (Lafayette, Colo.). Cells from a MDA-MB-231 breast cancer cell line were transfected with 100 nM of either non-target or cathepsin D siRNA using Oligofectamine (Invitrogen, Carlsbad, Calif.) according to the manufacturers protocol. Transfected cells were incubated at 37° C. for 24 hours and then treated with 10 μM Lucanthone for 48 hours. Efficiency of RNAi was measured at 48 hours by immunoblotting using an α-cathepsin D antibody. Apoptosis was determined by PI staining and flow cytometry.

[13] = test system: cathepsin D; assay: Cathepsin D expression by immunoblotting in breast cancer cell lines; type: cell-based; conditions: MDA-MB-231, BT-474, SKBR-3, BT-20 cells, 10 μM Lucanthone, 72 hours
Experimental: as §2
as §3, with “experiments. […]” for “experiments.”

[14] = test system: cathepsin D; assay: Cathepsin D protein levels and aggregation by immunocytochemistry; type: cell-based; conditions: immunocytochemistry (FIG. 3C)
[15] = breast cancer cell lines, FIG. 1G

| SMILES | pIC50 [1] | accumulation of electron dense particles [2] | acridine orange staining intensity of lysosomes (lysosomal acidity) [3] | SQSTMI/p62 levels ([4]; 10 μM Lucanthone, 48 hours, immunoblotting) | SQSTMI/p62 aggregation ([4]; immunocytochemistry) | lipid modification of LC3 into LC3-II (punctate localization to autophagosomes) [5] | cathepsin D mRNA levels (qRT-PCR) [6] | cell viability ([1]; panel of seven breast cancer cell lines, varying concentrations, 72 hours, MTT) | cytoplasmic vacuolization ([2]; 10 μM Lucanthone, Giemsa staining) | genes induced: cathepsin D (CTSD), MMPI, CYPIAI (upregulated by at least 4-fold) [7] | apoptosis ([8]; MDA-MB-231, BT-474, SKBR-3, BT-20 cells, 10 μM Lucanthone, 48 hours, PI-FACS) | apoptosis [8, 15] | LC3-II formation [9] | SQSTM1/p62 accumulation [9] | cathepsin D accumulation [10] | cell viability [11] | sensitivity to Lucanthone-mediated apoptosis of cells with reduced cathepsin D levels [12] | cathepsin D levels [13] | cathepsin D protein levels and cytosolic aggregation [14] |
| --- | --- | --- | --- | --- | --- | --- | --- | --- | --- | --- | --- | --- | --- | --- | --- | --- | --- | --- | --- |
| CCN(CC)CCCC(C)Nc1ccnc2cc(Cl)ccc12 (stereo not shown) [Chloroquine] | 4.18 | induced an accumulation of electron dense particles | loss of lysosomal acidity | – | – | – | – | – | – | – | – | – | – | – | – | – | – | – | – |
| CCN(CC)CCNc1ccc(C)c2sc3ccccc3c(=O)c12 [Lucanthone, 1-((2-(Diethylamino)ethyl)amino)-4-methylthioxanthen-9-one] | 5.14 | induced an accumulation of electron dense particles | decreased the red staining intensity of lysosomes | strongly increased | aggregated in response to Lucanthone | induced lipid modification of LC3-1 into LC3-II | induced a significant increase in cathepsin D levels in both cell lines | reduced cell viability to a similar extent in a panel of seven breast cancer cell lines | induced cytoplasmic vacuolization | increased in both cell lines | induces apoptosis in four different breast cancer cell lines | induce apoptosis in breast cancer cell lines | induce LC3-II formation | SQSTM1/p62 accumulation | induced cathepsin D accumulation equally regardless of p53 status | reduced viability to a similar extent | significantly less sensitive | strongly increased | dramatically increased cathepsin D protein levels and promoted its cytosolic aggregation |
| CO/C1=C\C(C)=C\[C@@H](C)[C@@H](O)[C@@H](C)C/C(C)=C/C=C/[C@H](OC)[C@@H]([C@@H](C)[C@@H](O)[C@H](C)[C@@]2(O)C[C@@H](O)[C@H](C)[C@@H](C(C)C)O2)OC1=O [Bafilomycin A1] | – | – | – | – | – | – | – | – | – | – | – | induce apoptosis in breast cancer cell lines | induce LC3-II formation | SQSTM1/p62 accumulation | – | – | – | – | – |

Source: patent US9000031B2, “Thioxanthone-based autophagy inhibitor therapies to treat cancer” (Spectrum Pharmaceuticals, Inc., priority 2010, dated 2015)
